Series [1] in a line: xn = mol fraction of the nth substance listed. The conditions noted are these: 298.2 K, 101 kPa, Liquid; for viscosity: Capillary tube (Ostwald / Ubbelohde) method; for mass density: Pycnometric method; for electrical conductivity: conductivity meter.
For series [2] the following is noted: Crystal; DTA.

± gives the expanded uncertainty stated by the source.

Regarding `Cc1ccccc1O` [2-methylphenol] + C[N+](C)(C)CCO.[Cl-], the viscosity is 207.41 ± 12 mPa·s in series [1] (x1 = 0.6667); 77.65 ± 4 mPa·s in series [1] (x1 = 0.75); 46.95 ± 2 mPa·s in series [1] (x1 = 0.7963); 34.9 ± 1.4 mPa·s in series [1] (x1 = 0.8333); 27.82 ± 1.1 mPa·s in series [1] (x1 = 0.8571). The mass density in series [1] (x1 = 0.6667) turned out to be 1077.6 ± 1.2 kg/m3; in series [1] (x1 = 0.75), 1070.7 ± 1.2 kg/m3; in series [1] (x1 = 0.7963), 1066.4 ± 1.2 kg/m3; in series [1] (x1 = 0.8333), 1063.1 ± 1.2 kg/m3; in series [1] (x1 = 0.8571), 1060.6 ± 1.2 kg/m3. The electrical conductivity in series [1] (x1 = 0.6667) was found to be 0.083 ± 0.001 S/m; in series [1] (x1 = 0.75) it was 0.121 ± 0.002 S/m; in series [1] (x1 = 0.7963) it was 0.141 ± 0.002 S/m; in series [1] (x1 = 0.8333) it was 0.145 ± 0.002 S/m; in series [1] (x1 = 0.8571), 0.138 ± 0.002 S/m.

Take `C[N+](C)(C)CCO.[Cl-]` [choline chloride]: the Normal melting temperature in series [2] was found to be 304.1 ± 0.5 °C.
